Reference: patent US20100311683A1, “CYTIDINE ANALOGS FOR TREATMENT OF MYELODYSPLASTIC SYNDROMES” (priority 2007, published 2010)
Like-named read-outs stand apart in the source and are kept apart here.

How the values were obtained:
MDS patients [1] = system: MDS patients
[2] = system: patients ≥60 years with AML
MDS patients [3] = conditions: pivotal CALGB study, approved Aza dose regimen subcutaneously; cited from earlier work
[4] = system: high-risk MDS patients with -7/del(7q); assay: AZA-001 subgroup analysis: patients with -7/del(7q); assay type: in vivo, human
[5] = system: patients with hematologic disorders, predominantly low-risk MDS; assay: AVIDA longitudinal registry of patients receiving azacitidine (transfusion independence); assay type: in vivo, human
Description: The study assessed usage patterns and transfusion requirements in patients enrolled in AVIDA, a longitudinal registry of patients with hematologic disorders receiving azacitidine, to further the understanding of current azacitidine treatment patterns in the community, identify common care procedures and concomitant treatments, and document transfusion requirements. Baseline demographics and disease characteristics were obtained at enrollment.

[6] = system: patients older than 55 years of age with AML; conditions: patients older than 55 years with AML, prior retrospective analysis; cited from earlier work

## Nc1ncn([C@@H]2O[C@H](CO)[C@@H](O)[C@H]2O)c(=O)n1 [azacitidine, 4-amino-1-β-D-ribofuranosyl-1,3,5-triazin-2(1H)-one]
MDS patients [1]; AZA 5 (75 mg/m2/d x5d)
  FAB low-risk patients RBC transfusion independent at baseline who remained independent during the study: 64%
  RBC transfusion-dependent patients who achieved and retained independence at the end of cycle 6: 63%
  evaluable patients RBC transfusion independent at baseline who remained independent during the study: 68%
  mean duration of RBC transfusion independence: 109 days
  onset of HI within the first 3 cycles: 96%
  patients with at least 1 treatment-emergent AE that led to study discontinuation: 14%
  patients with bilineage HI: 10%
  patients with serious AEs: 30%
MDS patients [1]; AZA 5 (75 mg/m2/d x5d), N=49
  Any HI (major and minor): 27 (55) [40, 69] %
  Erythroid Major HI (IWG 2000), evaluable patients: 18 (37) [23, 52] %
  Erythroid Minor HI: 1 (2) [0.1, 11] %
  Neutrophil Major HI: 4 (8) [40, 100] %
  Neutrophil Minor HI: 2 (4) [0.5, 14] %
  Platelet Major HI: 9 (18) [9, 32] %
  Platelet Minor HI: 2 (4) [0.5, 14] %
MDS patients [1]; AZA 5 (75 mg/m2/d x5d), N=50
  Grade 3/4 AE: Anemia: 5 (10) %
  Grade 3/4 AE: Candida Sepsis: 1 (2) %
  Grade 3/4 AE: Cellulitis: 1 (2) %
  Grade 3/4 AE: Epistaxis: 0%
  Grade 3/4 AE: Febrile neutropenia: 1 (2) %
  Grade 3/4 AE: GI hemorrhage: 0%
  Grade 3/4 AE: Hematologic Disorders: 17 (34) %
  Grade 3/4 AE: Hemorrhagic Events: 1 (2) %
  Grade 3/4 AE: Hemorrhagic anemia: 1 n (%)
  Grade 3/4 AE: Infections: 5 (10) %
  Grade 3/4 AE: Leukopenia: 4 (8) %
  Grade 3/4 AE: Neutropenia: 11 (22) %
  Grade 3/4 AE: Pneumonia: 1 (2) %
  Grade 3/4 AE: Rectal hemorrhage: 0%
  Grade 3/4 AE: Thrombocytopenia: 6 (12) %
  Grade 3/4 AE: Urinary tract infection: 0%
  Grade 3/4 AE: ≥1 Adverse Event: 29 (58) %
MDS patients [1]; AZA 5 (75 mg/m2/d x5d), n=28
  onset of IWG-defined HI in Cycle 1: 15 (54) %
  onset of IWG-defined HI in Cycle 2: 10 (36) %
  onset of IWG-defined HI in Cycle 3: 2 (7) %
  onset of IWG-defined HI in Cycle 4: 1 (4) %
  onset of IWG-defined HI in Cycle 5: 0%
  onset of IWG-defined HI in Cycle 6: 0%
MDS patients [1]; AZA 5-2-2 (75 mg/m2/d)
  FAB low-risk patients RBC transfusion independent at baseline who remained independent during the study: 75%
  RBC transfusion-dependent patients who achieved and retained independence at the end of cycle 6: 100%
  evaluable patients RBC transfusion independent at baseline who remained independent during the study: 67%
  mean duration of RBC transfusion independence: 135 days
  onset of HI within the first 3 cycles: 87%
  patients with at least 1 treatment-emergent AE that led to study discontinuation: 18%
  patients with bilineage HI: 11%
  patients with serious AEs: 54%
MDS patients [1]; AZA 5-2-2 (75 mg/m2/d), N=46
  Any HI (major and minor): 20 (44) [29, 59] %
  Erythroid Major HI (IWG 2000), evaluable patients: 15 (33) [20, 48] %
  Erythroid Minor HI: 1 (2) [0.1, 12] %
  Neutrophil Major HI: 3 (7) [29, 100] %
  Neutrophil Minor HI: 0 [0, 8] %
  Platelet Major HI: 10 (22) [11, 36] %
  Platelet Minor HI: 0 [0, 8] %
MDS patients [1]; AZA 5-2-2 (75 mg/m2/d), N=50
  Grade 3/4 AE: Anemia: 12 (24) %
  Grade 3/4 AE: Candida Sepsis: 0%
  Grade 3/4 AE: Cellulitis: 2 (4) %
  Grade 3/4 AE: Epistaxis: 1 (2) %
  Grade 3/4 AE: Febrile neutropenia: 4 (8) %
  Grade 3/4 AE: GI hemorrhage: 1 (2) %
  Grade 3/4 AE: Hematologic Disorders: 33 (66) %
  Grade 3/4 AE: Hemorrhagic Events: 4 (8) %
  Grade 3/4 AE: Hemorrhagic anemia: 0 n (%)
  Grade 3/4 AE: Infections: 11 (22) %
  Grade 3/4 AE: Leukopenia: 7 (14) %
  Grade 3/4 AE: Neutropenia: 21 (42) %
  Grade 3/4 AE: Pneumonia: 0%
  Grade 3/4 AE: Rectal hemorrhage: 0%
  Grade 3/4 AE: Thrombocytopenia: 13 (26) %
  Grade 3/4 AE: Urinary tract infection: 0%
  Grade 3/4 AE: ≥1 Adverse Event: 42 (84) %
MDS patients [1]; AZA 5-2-2 (75 mg/m2/d), n=22
  onset of IWG-defined HI in Cycle 1: 9 (41) %
  onset of IWG-defined HI in Cycle 2: 9 (41) %
  onset of IWG-defined HI in Cycle 3: 1 (5) %
  onset of IWG-defined HI in Cycle 4: 0%
  onset of IWG-defined HI in Cycle 5: 2 (9) %
  onset of IWG-defined HI in Cycle 6: 1 (5) %
MDS patients [1]; AZA 5-2-5 (50 mg/m2/d)
  FAB low-risk patients RBC transfusion independent at baseline who remained independent during the study: 80%
  RBC transfusion-dependent patients who achieved and retained independence at the end of cycle 6: 92%
  evaluable patients RBC transfusion independent at baseline who remained independent during the study: 79%
  mean duration of RBC transfusion independence: 138 days
  onset of HI within the first 3 cycles: 88%
  patients with at least 1 treatment-emergent AE that led to study discontinuation: 20%
  patients with bilineage HI: 7%
  patients with serious AEs: 40%
MDS patients [1]; AZA 5-2-5 (50 mg/m2/d), N=44
  Any HI (major and minor): 23 (52) [37, 68] %
  Erythroid Major HI (IWG 2000), evaluable patients: 17 (39) [24, 55] %
  Erythroid Minor HI: 1 (2) [0.1, 12] %
  Neutrophil Major HI: 4 (9) [40, 100] %
  Neutrophil Minor HI: 0 [0, 8] %
  Platelet Major HI: 8 (18) [8, 33] %
  Platelet Minor HI: 0 [0, 8] %
MDS patients [1]; AZA 5-2-5 (50 mg/m2/d), N=48
  Grade 3/4 AE: Anemia: 7 (15) %
  Grade 3/4 AE: Candida Sepsis: 0%
  Grade 3/4 AE: Cellulitis: 1 (2) %
  Grade 3/4 AE: Epistaxis: 0%
  Grade 3/4 AE: Febrile neutropenia: 4 (8) %
  Grade 3/4 AE: GI hemorrhage: 1 (2) %
  Grade 3/4 AE: Hematologic Disorders: 24 (50) %
  Grade 3/4 AE: Hemorrhagic Events: 3 (6) %
  Grade 3/4 AE: Hemorrhagic anemia: 0 n (%)
  Grade 3/4 AE: Infections: 14 (29) %
  Grade 3/4 AE: Leukopenia: 4 (8) %
  Grade 3/4 AE: Neutropenia: 15 (31) %
  Grade 3/4 AE: Pneumonia: 4 (8) %
  Grade 3/4 AE: Rectal hemorrhage: 1 (2) %
  Grade 3/4 AE: Thrombocytopenia: 7 (15) %
  Grade 3/4 AE: Urinary tract infection: 3 (6) %
  Grade 3/4 AE: ≥1 Adverse Event: 37 (77) %
MDS patients [1]; AZA 5-2-5 (50 mg/m2/d), n=24
  onset of IWG-defined HI in Cycle 1: 6 (25) %
  onset of IWG-defined HI in Cycle 2: 8 (33) %
  onset of IWG-defined HI in Cycle 3: 7 (29) %
  onset of IWG-defined HI in Cycle 4: 2 (8) %
  onset of IWG-defined HI in Cycle 6: 0%
MDS patients [1]; all 3 regimens
  hematologic AE: anemia: 29%
  hematologic AE: leukopenia: 18%
  hematologic AE: neutropenia: 38%
  hematologic AE: thrombocytopenia: 24%
  nonhematologic AE: constipation: 51%
  nonhematologic AE: fatigue: 93%
  nonhematologic AE: injection site erythema: 55%
  nonhematologic AE: injection site pain: 54%
  nonhematologic AE: nausea: 55%
MDS patients [1]; all 3 regimens, N=148
  Grade 3/4 AE: Anemia: 24 (16) %
  Grade 3/4 AE: Candida Sepsis: 1 (1) %
  Grade 3/4 AE: Cellulitis: 4 (3) %
  Grade 3/4 AE: Epistaxis: 1 (1) %
  Grade 3/4 AE: Febrile neutropenia: 9 (6) %
  Grade 3/4 AE: GI hemorrhage: 2 (1) %
  Grade 3/4 AE: Hematologic Disorders: 74 (50) %
  Grade 3/4 AE: Hemorrhagic Events: 8 (5) %
  Grade 3/4 AE: Infections: 30 (20) %
  Grade 3/4 AE: Leukopenia: 15 (10) %
  Grade 3/4 AE: Neutropenia: 47 (32) %
  Grade 3/4 AE: Pneumonia: 5 (3) %
  Grade 3/4 AE: Rectal hemorrhage: 1 (1) %
  Grade 3/4 AE: Thrombocytopenia: 26 (18) %
  Grade 3/4 AE: Urinary tract infection: 3 (2) %
  Grade 3/4 AE: ≥1 Adverse Event: 108 (73) %
MDS patients [1]; all 3 regimens, n=12
  serious AEs involving GI disorders: 8%
MDS patients [1]; all 3 regimens, n=19
  serious AEs involving blood or lymphatic system disorders: 13%
MDS patients [1]; all 3 regimens, n=31
  serious AEs involving infections: 21%
MDS patients [1]; each alternative dosing regimen group
  patients platelet transfusion independent at baseline who remained independent: ≥ 92%
MDS patients [1]; each of the 3 alternative treatment groups (2 patients each)
  patients with trilineage HI: 4%
MDS patients [1]; five patients (AZA 5-2-2 n=2, AZA 5 n=3)
  platelet transfusion independence in baseline-dependent patients: all of whom achieved transfusion independence
MDS patients [1]; three alternative dosing regimens
  tolerability: generally well tolerated
[2]; 5/8
  fatigue: 63%
  mild injection site skin reaction: 63%
[2]; all patients
  mean overall survival time from diagnosis: 180 days
[2]; azacitidine 100 mg/m2 SC 5 days every 28 days, 6/8 patients
  overall response rate: 75%
[2]; in vivo
  mean number of days hospitalized during therapy: 18 days
  treatment related deaths: No treatment related deaths were observed
[2]; n=2 of 8
  complete response (CR): 25%
[2]; n=4 of 8
  partial response (PR): 50%
[2]; responders
  mean overall survival time: 200 days
[2]; two of the six responders
  responders who became independent of RBC transfusion: 33%
MDS patients [3]
  baseline RBC transfusion dependent patients who achieved transfusion independence: 45%
[4]; -7/del(7q) alone
  IWG 2000 response rate (CR+PR): 64%
[4]; -7/del(7q) as part of complex karyotype
  IWG 2000 response rate (CR+PR): 21%
[4]; -7/del(7q) patients
  CR: 8/30, 27%
  CR + PR: 13/30, 43%
  HI-E: 13/26, 50%
  HI-P: 10/20, 50%
[4]; RBC-dependent -7/del(7q) patients at BL
  RBC TI (transfusion independence): 12/21, 57%
[4]; patients with -7/del(7q)
  OS advantage at 2 years vs CCR: 4 fold
  hazard ratio for overall survival, azacitidine vs CCR: 0.33
  improvement in OS over CCR: 3 fold
  median Kaplan Meier difference in OS, AZA vs CCR: 8.4 months
  patients alive at 2 years: 33%
  reduced risk of death vs CCR: 67%
  tolerability: generally well tolerated
[4]; patients with -7/del(7q), azacitidine n=30
  median Kaplan-Meier overall survival: 13.1 months
[5]; 16/43, at least 2 cycles of azacitidine
  patients with a history of transfusions who achieved transfusion-independence: 37%
[5]; 22/27, at least 2 cycles of azacitidine
  patients without a history of transfusion who achieved transfusion independence: 81%
[5]; patients with a history of transfusions
  median cycles to transfusion independence: 6 cycles
[5]; patients without a history of transfusion
  median cycles to transfusion independence: 4 cycles
[6]
  overall response rate: 60%
